The values below come from patent publication US20250281515A1, “CARBORANE COMPOUNDS, CARBORANE ANALOGS, AND METHODS OF USE THEREOF” (Ohio State Innovation Foundation, priority 2018, published 2025).

Where “and” joins values, the source holds several entries; their conditions need not be identical. Equal values may be shown once. Read-outs that look alike come from different tables or passages of the source.

One test deals with T1, Human full-length ERβ (Homo sapiens, UniProt Q92731).
T1 construct: expression vector encoding human full-length ERα or ERβ; expressed in transfected cells; host or cells: HEK293, transiently transfected
Kind of test: ERβ cell-based luciferase reporter assay, agonist mode. On the procedure: (§1) The selectivity and potency of the various compounds was carried out via in vitro testing in ERα and ERβ cell-based reporter assays. The activity of the selected compounds was determined in the cell-based reporter assays in HEK293 cells.
(§2) The HEK293 cells were propagated in a monolayer in phenol red-free DMEM supplemented with 10% fetal bovine serum, 2 mM Glutamax and penicillin/streptomycin (Thermo Fisher Scientific, MA, USA) and incubated in a 5% CO2 humidified atmosphere at 37° C. Right before transfection, the growth medium was changed to phenol red-free DMEM supplemented with 4% HyClone Fetal Bovine Serum, Charcoal/Dextran Treated (GE Healthcare Life Sciences, USA) and 2 mM Glutamax (starvation medium). The cells were transfected with the expression vector encoding human full-length ERα or ERβ and with the reporter vector containing 3 repeats of estrogen responsive elements (ERE) followed by the minimal thymidine kinase promoter from the herpes simplex virus in the pGL4 vector (Promega, USA). Luciferase served as a reporter gene. The transfection was carried out in 10 cm dishes (Nunc) in the starvation medium. After 24 hours, the cells were trypsinized, counted and seeded to cell culture treated, white, solid 1536-well plates (Corning Inc., NY, USA) at 1500 cells/well in 4 μl of total media volume. The compounds to be tested were diluted in DMSO and transferred to the cells using an acoustic dispenser Echo 520 (Labcyte). The compounds were tested at least at 12 different concentration points in the range from […] to 100 μM, in triplicates. Luciferase activity was determined after 24 hours of incubation with compounds with Britelite plus luciferase reporter gene assay reagent (Perkin Elmer, USA), according to the manufacturer protocol. The luciferase signal was measured on an Envison multimode plate reader (Perkin Elmer, USA). Data were collected and processed using an in-house built LIMS system ScreenX and GraphPad Prism software. EC50 values were calculated using a regression function (dose response, variable slope).
(§3) The selectivity and potency of various example compounds in the second library was carried out via in vitro testing in ERα and ERβ cell-based reporter assays.

The target in another test is T2, Human full-length ERα (Homo sapiens, UniProt P03372).
T2 construct: expression vector encoding human full-length ERα or ERβ; expressed in transfected cells; host or cells: HEK293, transiently transfected
T2 sequence (P03372 1-595): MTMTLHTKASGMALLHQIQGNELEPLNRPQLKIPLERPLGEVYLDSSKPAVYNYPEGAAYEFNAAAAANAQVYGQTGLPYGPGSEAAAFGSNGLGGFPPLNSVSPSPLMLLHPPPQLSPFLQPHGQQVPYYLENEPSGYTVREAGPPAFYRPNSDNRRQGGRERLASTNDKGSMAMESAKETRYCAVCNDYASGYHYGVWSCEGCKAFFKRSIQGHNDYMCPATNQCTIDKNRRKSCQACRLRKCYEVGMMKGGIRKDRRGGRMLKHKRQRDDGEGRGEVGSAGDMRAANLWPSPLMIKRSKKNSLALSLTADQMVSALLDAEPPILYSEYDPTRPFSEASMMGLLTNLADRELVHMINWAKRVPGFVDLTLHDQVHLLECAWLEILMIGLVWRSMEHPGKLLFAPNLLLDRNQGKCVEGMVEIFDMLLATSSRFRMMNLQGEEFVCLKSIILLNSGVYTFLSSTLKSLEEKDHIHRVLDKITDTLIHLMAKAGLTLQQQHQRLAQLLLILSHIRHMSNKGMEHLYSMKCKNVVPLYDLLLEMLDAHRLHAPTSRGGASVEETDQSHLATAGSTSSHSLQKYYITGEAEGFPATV
Nature of the test: ERα cell-based luciferase reporter assay, agonist mode. To be noted: for EC50: Table 8, second library, read-out: ERα agonism EC50. On the procedure:
as §1, §2, §3
(In general: In a reporter assay the amount or activity of a reporter protein is the signal.)

Another test addresses T3, Human full-length GR (Homo sapiens, UniProt P04150).
T3 sequence (P04150 1-777): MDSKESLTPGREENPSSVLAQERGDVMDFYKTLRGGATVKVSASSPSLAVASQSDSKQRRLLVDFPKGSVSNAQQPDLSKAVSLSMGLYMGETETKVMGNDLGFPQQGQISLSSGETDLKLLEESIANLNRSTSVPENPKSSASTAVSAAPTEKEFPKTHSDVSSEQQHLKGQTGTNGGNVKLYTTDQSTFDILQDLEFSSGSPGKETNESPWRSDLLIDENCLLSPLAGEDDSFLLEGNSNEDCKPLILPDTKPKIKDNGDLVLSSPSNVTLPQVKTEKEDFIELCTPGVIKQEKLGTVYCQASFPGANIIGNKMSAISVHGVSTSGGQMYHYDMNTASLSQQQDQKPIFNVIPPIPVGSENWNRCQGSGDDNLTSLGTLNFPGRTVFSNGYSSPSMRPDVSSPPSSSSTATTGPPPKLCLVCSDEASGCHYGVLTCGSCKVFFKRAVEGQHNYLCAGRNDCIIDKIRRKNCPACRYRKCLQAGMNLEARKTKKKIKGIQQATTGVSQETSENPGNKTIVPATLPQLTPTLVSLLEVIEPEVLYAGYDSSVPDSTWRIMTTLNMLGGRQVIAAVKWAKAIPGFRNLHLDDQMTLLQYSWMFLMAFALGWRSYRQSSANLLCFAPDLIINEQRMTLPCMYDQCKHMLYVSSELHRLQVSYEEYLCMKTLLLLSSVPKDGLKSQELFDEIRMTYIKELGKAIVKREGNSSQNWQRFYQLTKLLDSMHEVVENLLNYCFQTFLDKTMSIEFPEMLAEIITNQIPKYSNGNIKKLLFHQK
Nature of the test: GR cell-based luciferase reporter assay, agonist and antagonist mode. As to conditions: U2OS stable reporter cells; antagonist mode with 10 nM dexamethasone; concentration range tested 100 μM to 100 μM (so in the source).

The next test has as its system HEK293 cells. Nature of the test: HEK293 viability assay (ATPlite 1step). As to conditions: non-transfected HEK293, 24 h, ATP level; Trial 2; Low = activity too low for exact value. In kind it is cell-based, human. On the procedure: The non-transfected HEK293 cells were seeded to the 384-well plates at 5000 cell/well, compounds were added and the timing of all subsequent steps was exactly the same as in the reporter assays. […] After 24 h of compound incubation with cells, the viability of cells was measured by determining the ATP level in the samples using luciferase cell viability assay, ATPlite 1step (Perkin Elmer, USA).
In general terms: Cellular ATP, detected with luciferase, serves as a proxy for viable cell number.

The next test has as its target T4, Human full-length AR (Homo sapiens, UniProt P10275).
T4 sequence (P10275 1-920): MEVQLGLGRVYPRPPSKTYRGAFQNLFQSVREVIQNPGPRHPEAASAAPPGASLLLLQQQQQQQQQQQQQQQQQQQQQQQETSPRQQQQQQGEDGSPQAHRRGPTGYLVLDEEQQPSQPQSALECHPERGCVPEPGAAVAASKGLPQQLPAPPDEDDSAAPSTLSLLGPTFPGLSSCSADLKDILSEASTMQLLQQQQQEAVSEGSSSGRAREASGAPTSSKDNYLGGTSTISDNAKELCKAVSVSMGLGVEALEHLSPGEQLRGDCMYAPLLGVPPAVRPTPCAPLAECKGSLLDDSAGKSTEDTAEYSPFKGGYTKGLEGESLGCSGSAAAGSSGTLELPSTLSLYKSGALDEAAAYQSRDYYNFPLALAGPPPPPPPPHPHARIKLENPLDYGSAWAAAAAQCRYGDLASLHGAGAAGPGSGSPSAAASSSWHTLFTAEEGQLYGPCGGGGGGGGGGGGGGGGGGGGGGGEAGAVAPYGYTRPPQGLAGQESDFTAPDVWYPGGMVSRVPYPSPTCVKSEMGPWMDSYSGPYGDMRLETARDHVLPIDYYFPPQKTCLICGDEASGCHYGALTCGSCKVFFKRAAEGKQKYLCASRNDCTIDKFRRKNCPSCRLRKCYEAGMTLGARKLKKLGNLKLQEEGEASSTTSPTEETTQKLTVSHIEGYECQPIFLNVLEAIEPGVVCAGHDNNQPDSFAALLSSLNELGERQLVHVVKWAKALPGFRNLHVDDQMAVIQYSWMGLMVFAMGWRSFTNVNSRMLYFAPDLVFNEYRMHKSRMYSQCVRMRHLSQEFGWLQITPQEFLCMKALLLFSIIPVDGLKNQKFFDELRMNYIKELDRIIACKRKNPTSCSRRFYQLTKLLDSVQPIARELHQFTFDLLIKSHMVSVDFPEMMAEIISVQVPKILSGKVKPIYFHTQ
Kind of test: AR cell-based luciferase reporter assay, agonist and antagonist mode. As to conditions: U2OS stable reporter cells; antagonist mode with 2 nM DHT; concentration range tested 100 μM to 100 μM (so in the source).

Where [1] appears, read: Table 8, second library, read-out: ERβ agonism EC50.
Where [2] appears, read: HEK293, 24 hours, Trial 2 (believed more reliable), low = activity detected but too low for exact value.

T1 sequence (Q92731 whole entry): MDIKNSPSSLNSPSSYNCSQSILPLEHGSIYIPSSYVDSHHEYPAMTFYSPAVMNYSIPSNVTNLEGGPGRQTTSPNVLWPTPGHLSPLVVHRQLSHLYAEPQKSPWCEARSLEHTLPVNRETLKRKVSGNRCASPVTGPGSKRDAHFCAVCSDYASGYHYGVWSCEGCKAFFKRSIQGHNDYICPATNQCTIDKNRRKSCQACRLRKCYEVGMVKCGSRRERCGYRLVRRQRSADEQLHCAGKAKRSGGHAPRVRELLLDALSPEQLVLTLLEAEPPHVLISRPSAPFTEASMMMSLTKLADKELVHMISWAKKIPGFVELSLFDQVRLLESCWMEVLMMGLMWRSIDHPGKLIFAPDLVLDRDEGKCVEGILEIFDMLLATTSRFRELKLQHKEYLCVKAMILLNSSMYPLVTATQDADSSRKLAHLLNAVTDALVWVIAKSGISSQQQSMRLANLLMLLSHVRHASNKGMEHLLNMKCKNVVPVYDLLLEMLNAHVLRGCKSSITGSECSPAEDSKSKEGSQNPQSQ

As to `CCCCCC[C@@H](O)C12CCC(c3ccc(O)cc3)(CC1)CC2` [Compound 29], the concentration for a half-maximal effect (EC50) at Human full-length ERβ (setting [1]) and on Human full-length ERα was greater than 10 µM throughout.
Take `CCCCCC[C@H](O)C1CCC(c2ccc(O)cc2)CC1` (stereo partly drawn) [Compound 27]: the EC50 on Human full-length ERβ (setting [1]) and at Human full-length ERα was greater than 10 µM throughout.
Regarding “1-(4-hydoxyphenyl)-12-(1-hydroxyheptyl)-1,12-dicarba-closo-dodecaborane [Compound 06]”, on Human full-length ERβ (HEK293, 24 hours, Trial 2), the “ERβ Efficacy” value is 100 and 103. In addition, the “ERβ Log(EC50)” value on Human full-length ERβ (setting [2]) is −7.71 and −7.76. For the same compound, the EC50 on Human full-length ERβ (HEK293, 24 hours, Trial 2 (believed more reliable), low = activity detected but too low for exact value, read-out: ERβ EC50) is 0.019 µM and 0.017 µM; at Human full-length ERβ (text of Example 19, luciferase reporter-based cell assay in HEK cells, read-out: EC50 at ERβ), 0.005 µM. Moreover, the “agonistic or antagonistic activities on GR” value at Human full-length GR is “no agonistic or antagonistic activities”. In the test with HEK293 cells, the IC50 is 18 µM and 17 µM.
As for `CCCCCC[C@H](O)C1C2CC3CC1CC(c1ccc(O)cc1)(C3)C2` (stereo partly drawn) [Compound 30], the EC50 at Human full-length ERβ (setting [1]) and at Human full-length ERα was greater than 10 µM throughout.
In the case of `CCCCCC[C@H](O)c1ccc(-c2ccc(O)cc2)cc1` [Compound 26], the EC50 at Human full-length ERβ (setting [1]) and on Human full-length ERα was greater than 10 µM in each case.
Take `CCCc1c(-c2ccc(O)cc2)nn(-c2ccc(O)cc2)c1-c1ccc(O)cc1` [PPT, Propyl pyrazole triol, reference compound]: at Human full-length ERβ (setting [2]), the “ERβ EC50 (nM)” value is “low” and the “ERβ Log(EC50)” value was “low”. Further, at Human full-length ERα (HEK293, 24 hours, Trial 2), the “ERα Efficacy” value stood at 101.
Turning to `N#CC(Cc1ccc(O)cc1)c1ccc(O)cc1` (stereo not drawn) [DPN, Diarylpropionitrile], the “agonistic or antagonistic activities on GR” value at Human full-length GR was “no agonistic or antagonistic activities”. Besides, in the test on HEK293 cells, the “HEK293 viability IC50 (μM)” value was “Low”. For the same compound, at Human full-length AR, the “agonistic or antagonistic activities on AR” value is “no agonistic or antagonistic activities”.
`CCCCCC[C@H](O)C12CCC(c3ccc(O)cc3)(CC1)CC2` [Compound 28]: the half-maximal effective concentration (EC50) is 4.12 µM on Human full-length ERβ (setting [1]) and greater than 10 µM at Human full-length ERα.
In the case of `C[C@]12CC[C@@H]3c4ccc(O)cc4CC[C@H]3[C@@H]1CC[C@@H]2O` [Compound E2, Estradiol, reference compound], the “agonistic or antagonistic activities on GR” value on Human full-length GR was “no agonistic or antagonistic activities”. Besides, the “HEK293 viability IC50 (μM)” value with HEK293 cells is on record as “Low”.

As usually defined, the EC50 is the concentration giving half of the maximal effect. What is called IC50 is the concentration needed to halve the response being measured. A higher IC50 goes with weaker potency in that assay.
